Consider 1 compound from ChEMBL document CHEMBL4602676, “Discovery and Development of 3-(6-Chloropyridine-3-yloxymethyl)-2-azabicyclo[3.1.0]hexane Hydrochloride (SUVN-911): A Novel, Potent, Selective, and Orally Active Neuronal Nicotinic Acetylcholine α4β2 Receptor Antagonist for the Treatment of Depression” (J Med Chem, 2020).

The subject of one data set is Bone marrow cell. The experiment in a line: Genotoxicity in mouse bone marrow cells assessed as non clastogenic by micronucleus assay. In kind it is toxicity, cell-based.
Data set [1] concerns Rattus norvegicus. Description: Antidepressant activity in Wistar rat assessed as reduction in immobility at 1 mg/kg, po administrated for 3 days and measured for 5 mins by forced swim test relative to control. On the set-up: scale not given: the % may be the effect or the level left. The class given is functional.
For data set [2], the system named is Rattus norvegicus. Description: Antidepressant activity in Wistar rat assessed as reduction in immobility at 10 mg/kg, po administrated for 3 days and measured for 5 mins by forced swim test relative to control. The class given is functional. On the set-up: scale not given: the % may be the effect or the level left.
Data set [3] addresses T1, Solute carrier organic anion transporter family member 1B1 (Homo sapiens, UniProt Q9Y6L6).
T1 sequence (Q9Y6L6 whole entry): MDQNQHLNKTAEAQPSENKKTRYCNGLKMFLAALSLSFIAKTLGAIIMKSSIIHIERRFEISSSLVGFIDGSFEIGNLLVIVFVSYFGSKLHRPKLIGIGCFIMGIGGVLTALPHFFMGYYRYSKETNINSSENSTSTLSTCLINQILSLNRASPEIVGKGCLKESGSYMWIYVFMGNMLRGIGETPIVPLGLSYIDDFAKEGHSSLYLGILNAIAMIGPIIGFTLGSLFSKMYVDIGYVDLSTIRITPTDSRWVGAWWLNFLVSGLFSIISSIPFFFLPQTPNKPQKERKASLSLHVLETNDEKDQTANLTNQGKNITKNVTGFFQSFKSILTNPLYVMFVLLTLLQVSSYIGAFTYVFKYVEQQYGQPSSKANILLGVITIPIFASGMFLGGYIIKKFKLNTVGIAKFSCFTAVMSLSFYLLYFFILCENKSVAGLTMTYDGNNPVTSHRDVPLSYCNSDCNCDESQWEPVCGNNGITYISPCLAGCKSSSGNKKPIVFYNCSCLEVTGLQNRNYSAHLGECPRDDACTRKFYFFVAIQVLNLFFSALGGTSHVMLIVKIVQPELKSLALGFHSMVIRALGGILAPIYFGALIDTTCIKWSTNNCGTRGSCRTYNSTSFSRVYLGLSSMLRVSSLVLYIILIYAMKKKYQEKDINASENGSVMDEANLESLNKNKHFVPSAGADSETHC
The experiment in a line: Inhibition of OATP1B1 (unknown origin).

A further data set concerns the target T2, Cytochrome P450 1A2 (Homo sapiens, UniProt P05177).
T2 sequence (P05177 whole entry): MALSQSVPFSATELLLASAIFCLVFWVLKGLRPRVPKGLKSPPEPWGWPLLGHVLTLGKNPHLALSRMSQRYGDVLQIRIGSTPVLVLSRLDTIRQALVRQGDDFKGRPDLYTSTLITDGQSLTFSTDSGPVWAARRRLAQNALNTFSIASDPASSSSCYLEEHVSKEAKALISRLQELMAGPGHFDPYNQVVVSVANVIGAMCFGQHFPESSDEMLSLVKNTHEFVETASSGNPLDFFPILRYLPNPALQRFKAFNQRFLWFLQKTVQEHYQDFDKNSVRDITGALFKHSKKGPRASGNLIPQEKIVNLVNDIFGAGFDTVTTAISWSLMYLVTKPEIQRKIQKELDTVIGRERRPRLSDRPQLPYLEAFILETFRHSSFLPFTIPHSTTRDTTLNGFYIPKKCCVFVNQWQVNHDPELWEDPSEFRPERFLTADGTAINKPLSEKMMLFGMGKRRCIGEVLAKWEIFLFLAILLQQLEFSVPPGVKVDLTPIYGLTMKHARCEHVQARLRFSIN
The experiment in a line: Induction of CYP1A2 (unknown origin). The class given is ADME.

Data set [4] is described as follows: Terminal half life in Beagle dog at 1 mg/kg, iv by LC-MS/MS analysis. In kind it is ADME, organism-based, Canis lupus familiaris. The settings on record: in vivo, read-out: beta t1/2 (converted).
Data set [5] can be described thus: Genotoxicity in Salmonella typhimurium TA1537 in absence of metabolic activation. In kind it is toxicity. Conditions: salmonella enterica subsp. enterica serovar typhimurium.
In another data set the target is T3, Cytochrome P450 2B6 (Homo sapiens, UniProt P20813).
T3 sequence (P20813 whole entry): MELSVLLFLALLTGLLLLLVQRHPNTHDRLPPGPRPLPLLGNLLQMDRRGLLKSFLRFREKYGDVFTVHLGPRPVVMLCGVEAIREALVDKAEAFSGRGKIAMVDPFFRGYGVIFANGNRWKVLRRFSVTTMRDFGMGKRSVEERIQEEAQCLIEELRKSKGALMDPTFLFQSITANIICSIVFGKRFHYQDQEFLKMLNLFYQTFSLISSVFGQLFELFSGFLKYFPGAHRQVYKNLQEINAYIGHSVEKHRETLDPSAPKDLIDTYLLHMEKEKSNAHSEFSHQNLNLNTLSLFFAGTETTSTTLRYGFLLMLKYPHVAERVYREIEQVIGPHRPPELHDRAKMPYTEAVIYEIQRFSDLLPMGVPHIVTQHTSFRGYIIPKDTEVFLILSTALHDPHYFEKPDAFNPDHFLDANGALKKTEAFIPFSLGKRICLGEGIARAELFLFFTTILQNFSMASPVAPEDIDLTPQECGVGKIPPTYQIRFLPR
The experiment in a line: Induction of CYP2B6 (unknown origin). The class given is ADME.

The nature of data set [6]: Toxicity in telemetered Beagle dog assessed as change in heart rate up to 25 mg/kg, po. The class given is organism-based, Canis lupus familiaris. The settings on record: in vivo.
For the next data set, the target named is Cytochrome P450 3A4 (Homo sapiens, UniProt P08684). The experiment in a line: Induction of CYP3A4 (unknown origin). The class given is ADME.
Chain of Cytochrome P450 3A4 (P08684 whole entry): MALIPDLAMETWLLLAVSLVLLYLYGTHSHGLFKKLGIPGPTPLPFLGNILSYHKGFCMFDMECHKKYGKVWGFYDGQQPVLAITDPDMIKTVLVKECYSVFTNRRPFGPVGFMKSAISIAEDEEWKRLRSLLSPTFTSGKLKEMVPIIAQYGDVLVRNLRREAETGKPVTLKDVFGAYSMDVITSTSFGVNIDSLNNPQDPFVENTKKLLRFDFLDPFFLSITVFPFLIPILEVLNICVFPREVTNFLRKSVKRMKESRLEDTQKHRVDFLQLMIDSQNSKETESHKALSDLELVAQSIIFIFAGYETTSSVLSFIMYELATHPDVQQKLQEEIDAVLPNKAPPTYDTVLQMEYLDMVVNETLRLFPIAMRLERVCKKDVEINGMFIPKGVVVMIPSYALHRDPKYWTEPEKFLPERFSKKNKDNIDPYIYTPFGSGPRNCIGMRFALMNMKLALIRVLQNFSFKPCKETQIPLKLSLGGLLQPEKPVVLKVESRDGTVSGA
The nature of data set [7]: Half life in Wistar rat at 10 ml/kg, po or 2 ml/kg, iv measured upto 24 hrs by LC-MS/MS analysis. In kind it is ADME, organism-based. Conditions: in vivo; call rule not given here.
Data set [8] in a line: Metabolic stability in rat liver microsomes assessed as compound metabolism incubated for 30 mins in presence of NADPH by LC-MS/MS analysis. The class given is ADME, Microsome. Conditions: read-out: Drug metabolism.
A further data set deals with Caco-2. Description: Ratio of apparent permeability across basolateral to apical over apical to basolateral side in human Caco2 cells. In kind it is ADME, cell-based.
For data set [9], the target named is Neuronal acetylcholine receptor; alpha3/beta4 (Homo sapiens, UniProt P30926+P32297). Description: Displacement of [3H]epibatidine from human alpha3beta4 nAChR expressed in IMR32 cell membrane by microbeta scintillation counting method. In kind it is cell membranes, IMR-32.
Chain of Neuronal acetylcholine receptor; alpha3/beta4 (P30926 whole entry): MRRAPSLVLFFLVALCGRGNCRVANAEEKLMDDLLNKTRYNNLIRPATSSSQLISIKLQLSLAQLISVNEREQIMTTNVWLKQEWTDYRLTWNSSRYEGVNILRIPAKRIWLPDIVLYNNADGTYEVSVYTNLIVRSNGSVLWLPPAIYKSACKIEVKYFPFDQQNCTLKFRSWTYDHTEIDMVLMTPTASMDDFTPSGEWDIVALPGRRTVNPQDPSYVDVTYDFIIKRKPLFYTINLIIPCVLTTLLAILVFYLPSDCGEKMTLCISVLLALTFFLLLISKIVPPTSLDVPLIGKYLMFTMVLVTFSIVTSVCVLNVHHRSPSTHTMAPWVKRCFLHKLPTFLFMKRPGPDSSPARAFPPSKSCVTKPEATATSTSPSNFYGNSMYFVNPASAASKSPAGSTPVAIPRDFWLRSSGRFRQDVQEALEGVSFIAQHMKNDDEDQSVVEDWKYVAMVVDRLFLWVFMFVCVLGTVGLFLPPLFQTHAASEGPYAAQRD
Chain of Neuronal acetylcholine receptor; alpha3/beta4 (P32297 whole entry): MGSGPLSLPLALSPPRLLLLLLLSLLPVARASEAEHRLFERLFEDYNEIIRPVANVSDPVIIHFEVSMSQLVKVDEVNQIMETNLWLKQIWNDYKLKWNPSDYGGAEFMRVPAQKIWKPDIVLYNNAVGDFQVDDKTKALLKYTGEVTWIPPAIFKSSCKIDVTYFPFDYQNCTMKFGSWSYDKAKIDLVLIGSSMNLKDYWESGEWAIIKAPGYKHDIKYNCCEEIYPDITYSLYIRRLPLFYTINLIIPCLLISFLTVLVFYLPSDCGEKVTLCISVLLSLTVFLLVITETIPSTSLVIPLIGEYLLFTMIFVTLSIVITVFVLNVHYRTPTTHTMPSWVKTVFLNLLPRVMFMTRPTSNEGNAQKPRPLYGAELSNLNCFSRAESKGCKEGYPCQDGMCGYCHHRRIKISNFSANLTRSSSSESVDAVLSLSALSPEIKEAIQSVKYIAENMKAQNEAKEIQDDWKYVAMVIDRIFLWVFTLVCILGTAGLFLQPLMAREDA
Data set [10] can be described thus: Genotoxicity in Salmonella typhimurium TA1535 in absence of metabolic activation. The settings on record: salmonella enterica subsp. enterica serovar typhimurium. In kind it is toxicity.
A short description of data set [11]: Toxicity in telemetered Beagle dog assessed as change in body temperature up to 25 mg/kg, po. The class given is organism-based, Canis lupus familiaris. Conditions: in vivo.
The nature of data set [12]: Toxicity in telemetered Beagle dog assessed as change in body weight up to 25 mg/kg, po. In kind it is organism-based, Canis lupus familiaris. The settings on record: in vivo.
Data set [13] is described as follows: Apparent permeability in human Caco2 cells. In kind it is ADME, cell-based. The settings on record: caco-2.
Data set [14] has as its target Neuronal acetylcholine receptor; alpha4/beta2 (Rattus norvegicus, UniProt P09483+P12390). The experiment in a line: In vivo receptor occupancy at alpha4beta2 nAChR in Wistar rat assessed as brain concentration pretreated for 15 mins followed by non radiolabelled ZW-104 tracer treatment and measured after 45 mins by LC-MS/MS analysis. In kind it is functional, organism-based.

The nature of data set [15]: Metabolic stability in human liver microsomes assessed as compound metabolism incubated for 30 mins in presence of NADPH by LC-MS/MS analysis. The class given is ADME, Microsome. The settings on record: read-out: Drug metabolism.
A short description of data set [16]: Oral bioavailability in Beagle dog at 3 mg/kg by LC-MS/MS analysis. The class given is ADME, organism-based, Canis lupus familiaris. The settings on record: in vivo.
Data set [17] is described as follows: Toxicity in telemetered Beagle dog assessed as change in blood pressure up to 25 mg/kg, po. The class given is organism-based, Canis lupus familiaris. Conditions: in vivo.
The nature of data set [18]: Protein binding in human plasma assessed as unbound fraction at […] incubated for 6 hrs by LC-MS/MS analysis. The class given is ADME, cell-free.

A value given as a limit tells only on which side of the number the result lay.

Chain of Neuronal acetylcholine receptor; alpha4/beta2 (P09483 whole entry): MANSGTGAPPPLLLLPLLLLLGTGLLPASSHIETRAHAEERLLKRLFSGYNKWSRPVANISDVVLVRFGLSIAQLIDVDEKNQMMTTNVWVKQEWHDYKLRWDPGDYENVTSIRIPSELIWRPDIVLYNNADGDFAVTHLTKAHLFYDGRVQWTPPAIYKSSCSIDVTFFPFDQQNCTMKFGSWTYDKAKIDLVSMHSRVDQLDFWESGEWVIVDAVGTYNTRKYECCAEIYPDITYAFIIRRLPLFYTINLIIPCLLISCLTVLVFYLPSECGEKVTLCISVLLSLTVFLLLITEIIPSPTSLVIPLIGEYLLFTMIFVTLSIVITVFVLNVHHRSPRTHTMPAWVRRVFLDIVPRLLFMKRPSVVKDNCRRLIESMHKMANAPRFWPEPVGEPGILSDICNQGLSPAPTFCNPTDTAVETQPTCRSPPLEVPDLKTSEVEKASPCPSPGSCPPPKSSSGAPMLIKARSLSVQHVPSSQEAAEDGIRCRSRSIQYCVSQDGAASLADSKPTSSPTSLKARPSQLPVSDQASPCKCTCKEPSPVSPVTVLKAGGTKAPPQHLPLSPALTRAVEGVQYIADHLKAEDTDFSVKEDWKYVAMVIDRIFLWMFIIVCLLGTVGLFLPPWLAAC
Chain of Neuronal acetylcholine receptor; alpha4/beta2 (P12390 whole entry): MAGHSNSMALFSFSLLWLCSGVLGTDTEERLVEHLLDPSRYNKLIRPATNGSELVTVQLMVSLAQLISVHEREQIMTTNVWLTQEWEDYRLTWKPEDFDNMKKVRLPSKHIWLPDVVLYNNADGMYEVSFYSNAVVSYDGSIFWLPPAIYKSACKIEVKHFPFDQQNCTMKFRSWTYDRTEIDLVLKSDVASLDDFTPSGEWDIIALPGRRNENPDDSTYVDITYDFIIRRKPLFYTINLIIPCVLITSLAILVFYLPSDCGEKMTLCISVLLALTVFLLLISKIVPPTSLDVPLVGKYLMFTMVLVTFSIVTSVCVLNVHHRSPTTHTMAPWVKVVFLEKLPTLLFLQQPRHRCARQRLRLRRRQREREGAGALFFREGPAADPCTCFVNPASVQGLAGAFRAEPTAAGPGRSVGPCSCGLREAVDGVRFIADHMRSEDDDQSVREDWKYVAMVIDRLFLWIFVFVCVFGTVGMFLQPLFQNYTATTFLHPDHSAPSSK

As to `Cl.Clc1ccc(OC[C@@H]2C[C@H]3C[C@H]3N2)cn1`, the Activity entry was “Non-Toxic” with Bone marrow cell; 29.35% in the data set with Rattus norvegicus [1]; 66.4% in the data set on Rattus norvegicus [2]; “Not Active” at Cytochrome P450 1A2; “Non-Toxic” in data set [5]; “Not Active” at Cytochrome P450 2B6. Besides, the Activity entry in [6] was “Non-Toxic”; on Cytochrome P450 3A4 it was “Not Active”; in data set [10], “Non-Toxic”; in [11] it was “Non-Toxic”; in [12], “Non-Toxic”; in data set [17], “Non-Toxic”. For the same compound, in data set [3], the “inhibition (INH)” value is given as “Not Active”. Further, the half-life in [4] was 1.9 h; in [7] it was 3.34 h. In addition, the metabolised at 0.5 h in [8] stood at 32.2%; in data set [15], 33.4%. In addition, the Ratio in the data set on Caco-2 came out at 0.7. In addition, the inhibitory constant (Ki) in data set [9] is over 10 µM. Further, the Papp in [13] was determined as 68.8 ×10⁻⁶ cm/s. Also, the EC50 in [14] was found to be 334 µM. Also, the bioavailability in data set [16] is 83%. The fraction unbound at 6 h in data set [18] came out at 0.21.
